PubChem BioAssay (NCI)
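Cultured in 96-well plates, cells were exposed to test compound for 48 hours across five concentrations. Abbreviation: GI50, concentration required for 50% inhibition of growth. TGI: total growth inhibition.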

Assays:
Test in all cases: NCI-60 cell line screen, 48 h
786-0 renal = test system: 786-0 renal
A498 renal = test system: A498 renal
A549 NSCLC = test system: A549 NSCLC
ACHN renal = test system: ACHN renal
BT-549 breast = test system: BT-549 breast
CAKI-1 renal = test system: CAKI-1 renal
CCRF-CEM leukemia = test system: CCRF-CEM leukemia
COLO 205 colon = test system: COLO 205 colon
DU-145 prostate = test system: DU-145 prostate
EKVX NSCLC = test system: EKVX NSCLC
HCC-2998 colon = test system: HCC-2998 colon
HCT-116 colon = test system: HCT-116 colon
HCT-15 colon = test system: HCT-15 colon
HOP-62 NSCLC = test system: HOP-62 NSCLC
HOP-92 NSCLC = test system: HOP-92 NSCLC
HS 578T breast = test system: HS 578T breast
HT29 colon = test system: HT29 colon
IGROV1 ovarian = test system: IGROV1 ovarian
K-562 leukemia = test system: K-562 leukemia
KM12 colon = test system: KM12 colon
LOX IMVI melanoma = test system: LOX IMVI melanoma
M14 melanoma = test system: M14 melanoma
MALME-3M melanoma = test system: MALME-3M melanoma
MCF7 breast = test system: MCF7 breast
MDA-MB-231 breast = test system: MDA-MB-231 breast
MDA-MB-435 = test system: MDA-MB-435
MOLT-4 leukemia = test system: MOLT-4 leukemia
NCI-H226 lung = test system: NCI-H226 lung
NCI-H23 lung = test system: NCI-H23 lung
NCI-H460 lung = test system: NCI-H460 lung
NCI-H522 lung = test system: NCI-H522 lung
NCI/ADR-RES ovarian = test system: NCI/ADR-RES ovarian
OVCAR-3 ovarian = test system: OVCAR-3 ovarian
OVCAR-4 ovarian = test system: OVCAR-4 ovarian
OVCAR-5 ovarian = test system: OVCAR-5 ovarian
OVCAR-8 ovarian = test system: OVCAR-8 ovarian
PC-3 prostate = test system: PC-3 prostate
RPMI-8226 leukemia = test system: RPMI-8226 leukemia
RXF 393 renal = test system: RXF 393 renal
SF-268 CNS = test system: SF-268 CNS
SF-295 CNS = test system: SF-295 CNS
SF-539 CNS = test system: SF-539 CNS
SK-MEL-2 melanoma = test system: SK-MEL-2 melanoma
SK-MEL-28 melanoma = test system: SK-MEL-28 melanoma
SK-MEL-5 melanoma = test system: SK-MEL-5 melanoma
SK-OV-3 ovarian = test system: SK-OV-3 ovarian
SN12C renal = test system: SN12C renal
SNB-19 CNS = test system: SNB-19 CNS
SNB-75 CNS = test system: SNB-75 CNS
SR leukemia = test system: SR leukemia
SW-620 colon = test system: SW-620 colon
T-47D breast = test system: T-47D breast
TK-10 renal = test system: TK-10 renal
U251 CNS = test system: U251 CNS
UACC-257 melanoma = test system: UACC-257 melanoma
UACC-62 melanoma = test system: UACC-62 melanoma
UO-31 renal = test system: UO-31 renal

For `O=C1C(Cl)=C(Nc2cccc(C(F)(F)F)c2)C(=O)N1Cc1ccccc1Cl`, the GI50 (786-0 renal) was 1.78 µM, the TGI (786-0 renal) was 16.5 µM and the GI50 (A498 renal) was 5.06 µM. For the same molecule, the TGI (A498 renal) was 19.7 µM, the GI50 (A549 NSCLC) was 7.68 µM and the TGI (A549 NSCLC) was 27.5 µM. The GI50 (ACHN renal) was 4.84 µM, the TGI (ACHN renal) was 17.1 µM and the GI50 (BT-549 breast) was 1.95 µM. It also gave a TGI (BT-549 breast) of 18.1 µM, a GI50 (CAKI-1 renal) of 4.84 µM and a TGI (CAKI-1 renal) of 21.6 µM. It also gave a GI50 (CCRF-CEM leukemia) of 1.23 µM, a GI50 (COLO 205 colon) of 12 µM and a TGI (COLO 205 colon) of 35.8 µM. For the same molecule, the GI50 (DU-145 prostate) was 14 µM, the TGI (DU-145 prostate) was 29.6 µM and the GI50 (EKVX NSCLC) was 15.7 µM. The TGI (EKVX NSCLC) was 37 µM, the GI50 (HCC-2998 colon) was 12.6 µM and the TGI (HCC-2998 colon) was 28 µM. The GI50 (HCT-116 colon) was 1.25 µM, the TGI (HCT-116 colon) was 5.27 µM and the GI50 (HCT-15 colon) was 3.42 µM. It also gave a TGI (HCT-15 colon) of 20.6 µM, a GI50 (HOP-62 NSCLC) of 12.6 µM and a TGI (HOP-62 NSCLC) of 25.4 µM. It also gave a GI50 (HOP-92 NSCLC) of 8.34 µM, a TGI (HOP-92 NSCLC) of 28.4 µM and a GI50 (HS 578T breast) of 8.34 µM. For the same molecule, the TGI (HS 578T breast) was 43.5 µM, the GI50 (HT29 colon) was 4.9 µM and the TGI (HT29 colon) was 32.9 µM. For the same molecule, the GI50 (IGROV1 ovarian) was 0.186 µM, the TGI (IGROV1 ovarian) was 11.2 µM and the GI50 (K-562 leukemia) was 4.36 µM. The TGI (K-562 leukemia) was 26.5 µM, the GI50 (KM12 colon) was 12.1 µM and the TGI (KM12 colon) was 33.5 µM. For the same molecule, the GI50 (LOX IMVI melanoma) was 1.41 µM, the TGI (LOX IMVI melanoma) was 3.75 µM and the GI50 (M14 melanoma) was 6.21 µM. The TGI (M14 melanoma) was 19.1 µM, the GI50 (MALME-3M melanoma) was 1.54 µM and the TGI (MALME-3M melanoma) was 23.3 µM. For the same molecule, the GI50 (MCF7 breast) was 4.21 µM, the TGI (MCF7 breast) was greater than 31.8 µM and the GI50 (MDA-MB-231 breast) was 2.67 µM. It also gave a TGI (MDA-MB-231 breast) of 17.4 µM, a GI50 (MDA-MB-435) of 2.49 µM and a TGI (MDA-MB-435) of 12.2 µM. The GI50 (MOLT-4 leukemia) was 2.56 µM, the TGI (MOLT-4 leukemia) was 8.53 µM and the GI50 (NCI-H226 lung) was 0.0858 µM. The TGI (NCI-H226 lung) was 3.01 µM, the GI50 (NCI-H23 lung) was 5.45 µM and the TGI (NCI-H23 lung) was 23.2 µM. The GI50 (NCI-H460 lung) was 6.19 µM, the TGI (NCI-H460 lung) was 22.4 µM and the GI50 (NCI-H522 lung) was 0.49 µM. It also gave a TGI (NCI-H522 lung) of 19.8 µM, a GI50 (NCI/ADR-RES ovarian) of 10.1 µM and a TGI (NCI/ADR-RES ovarian) of 26.8 µM. The GI50 (OVCAR-3 ovarian) was 4.33 µM, the TGI (OVCAR-3 ovarian) was 24.8 µM and the GI50 (OVCAR-4 ovarian) was 6.58 µM. It also gave a TGI (OVCAR-4 ovarian) of 26.5 µM, a GI50 (OVCAR-5 ovarian) of 18.3 µM and a TGI (OVCAR-5 ovarian) of 37 µM. For the same molecule, the GI50 (OVCAR-8 ovarian) was 2.71 µM, the TGI (OVCAR-8 ovarian) was 20.9 µM and the GI50 (PC-3 prostate) was 4.72 µM. It also gave a TGI (PC-3 prostate) of 18.2 µM, a GI50 (RPMI-8226 leukemia) of 2.17 µM and a TGI (RPMI-8226 leukemia) greater than 23.5 µM. For the same molecule, the GI50 (RXF 393 renal) was 1.12 µM, the TGI (RXF 393 renal) was 10.4 µM and the GI50 (SF-268 CNS) was 7.7 µM. The TGI (SF-268 CNS) was 26.1 µM, the GI50 (SF-295 CNS) was 2.39 µM and the TGI (SF-295 CNS) was 24.9 µM. It also gave a GI50 (SF-539 CNS) of 1.91 µM, a TGI (SF-539 CNS) of 10.7 µM and a GI50 (SK-MEL-2 melanoma) of 4.08 µM. The TGI (SK-MEL-2 melanoma) was 19.8 µM, the GI50 (SK-MEL-28 melanoma) was 8.21 µM and the TGI (SK-MEL-28 melanoma) was 26.9 µM. The GI50 (SK-MEL-5 melanoma) was 2.79 µM, the TGI (SK-MEL-5 melanoma) was 14.7 µM and the GI50 (SK-OV-3 ovarian) was 20.3 µM. The TGI (SK-OV-3 ovarian) was 39.8 µM, the GI50 (SN12C renal) was 3.96 µM and the TGI (SN12C renal) was 16.8 µM. For the same molecule, the GI50 (SNB-19 CNS) was 13.1 µM, the TGI (SNB-19 CNS) was 29.4 µM and the GI50 (SNB-75 CNS) was 0.996 µM. For the same molecule, the TGI (SNB-75 CNS) was 9.55 µM, the GI50 (SR leukemia) was 3.72 µM and the TGI (SR leukemia) was 28 µM. The GI50 (SW-620 colon) was 2.38 µM, the TGI (SW-620 colon) was 22.2 µM and the GI50 (T-47D breast) was 12.8 µM. It also gave a TGI (T-47D breast) of 40.7 µM, a GI50 (TK-10 renal) of 14 µM and a TGI (TK-10 renal) of 37.5 µM. For the same molecule, the GI50 (U251 CNS) was 2.1 µM, the TGI (U251 CNS) was 13.8 µM and the GI50 (UACC-257 melanoma) was 13.7 µM. It also gave a TGI (UACC-257 melanoma) of 29.7 µM, a GI50 (UACC-62 melanoma) of 3.18 µM and a TGI (UACC-62 melanoma) of 13.7 µM. The GI50 (UO-31 renal) was 5.01 µM and the TGI (UO-31 renal) was greater than 43.6 µM.
